# Data reported in PMC4696656, “Insights into the Mechanism of Action of Bactericidal Lipophosphonoxins” (PLoS ONE, 2015).
# What was measured:
# [1] = test system: mice; test: MTD test in mouse model, administration per os; assay type: in vivo, Mice ICR; conditions: for gross pathology findings: males and females
# Experimental: (§1) The MTD (maximum tolerated dose) in mouse model was carried out by MediTox s.r.o. on a commercial basis. The complete protocol for the MTD testing can be found in S3 Supporting Information.
# (§2) For the administration the appropriate amount of the Test item (TI) was dissolved in water (aqua for injection, B. Braun, Germany) and administered to mice either orally (in the volume of 0.5 mL/25 g of body weight) or intraperitoneally (in the volume of 1.0 mL/25 g of body weight).
# (§3) S3 and S4 Tables summarize the test system parameters, the number of animals used, and the doses tested. Briefly, for each dose, 3 males are 3 females were used.
# (§4) All animals from the study were observed daily for clinical signs, morbidity or mortality during acclimation, 0.5, 4, 6, 24 and 48 hours after administration. Onset, duration and severity of any signs were recorded, and used as criteria for early euthanasia decisions. The clinical observations included: changes in skin, fur, eyes, occurrence of secretion and excretion; autonomic activity (e.g. lacrimation, piloerection); changes in gait and posture; changes in unprovoked behavior, presence of stereotypes or bizarre behavior; response to handling. Ether was used for anesthesia in compliance with the Standard Operating Procedures (SOPs) of MediTox, the European convention for the protection of vertebrate animals used for experimental and other scientific purposes (ETS 123), the Czech Collection of laws No. 246/1992, inclusive of the amendments, on the Protection of animals against cruelty, and Public Notice of the Ministry of Agriculture of the Czech Republic, Collection of laws No. 419/2012 as amended, on keeping and exploitation of experimental animals. MediTox s.r.o. is a holder of the accreditation Certificate for user’s issued by Central Committee for Animal Protection of the Czech Republic.
# (§5) All the animals that died during study or survived to their scheduled euthanasia (cervical dislocation under ether anesthesia) 8th day after the administration received a complete post-mortem examination and microscopic examination of organs showing evidence of gross pathology. The cause of death of animals that died during the study before the scheduled euthanasia was mainly venostasis of kidneys and liver.
# (§6) S3 Supporting in formation. MTD test in mouse mo d el – a detailed […]
# (§7) The MTD (maximum tolerated dose) in mouse model was carried out by MediTox s.r.o. on the […]
# (§8) The stud y w as carried ou t accordin g to:
# (§9) ICH M3(R2) – The International Conference on Harmonization of Technical Requirements for Registration of Pharm aceuticals for Human Use. Relevant SOPs (Standard operating procedures ) […]
# (§10) Facility Management and Animal Husbandry
# (§11) Animal car e was in comp liance with th e SOPs of MediTox s.r.o., the Euro pean convention fo r the protection of vertebrate animals used for experimental and other scientific purposes (ETS 123), the Czech Collection of laws No. 246/1992, inclusive of the amendments, on the Protection of animals against cruelty, and Public Notice of the Ministry of Agriculture of the Czech Republic, Collection of laws No. 419/2012 as amended, on keeping and exploitation of experimental animals. MediTox s.r.o. is a holder of the accreditation Certificate for user’s issued by Central Committee for Animal Protection of the Czech Republic.
# (§12) Animal Welfare Act Compliance
# (§13) The stud y was prepared for this t ype of ex perimen t and approved b y th e Ins titutional Animal Care and Use Committee ( IAC UC) and the Committee for Animal Protection of the Ministry of Health (PP 09/2013) of the Czech Republic. Procedures used in this report were designed to conform to accepted practices and to minimize or avoid causing pain, distress, or discomfort to the animals.
# (§14) The number of animals selected for use in this study was considered to be the minimum number necessar y to meet scienti fic and regulator y guideli nes for this t ype of stud y.
# (§15) Preparation of the Test item application formulations […]
# [2] = test system: mice; test: MTD test in mouse model, administration intraperitoneally; assay type: in vivo, Mice ICR
# Experimental: as §1, §2, §3, §4, §5, §6, §7, §8, §9, §10, §11, §12, §13, §14, §15
# [3] = D2-IP 500 mg/kg i.p., females, 3 animals
# [4] = D2-IP 500 mg/kg i.p., males, 3 animals
# [5] = D3-IP 250 mg/kg i.p., females, 3 animals
# [6] = D3-IP 250 mg/kg i.p., males, 3 animals
# [7] = D4-IP 80 mg/kg i.p., females, 3 animals
# [8] = D4-IP 80 mg/kg i.p., males, 3 animals
# [9] = D5-IP 50 mg/kg i.p., females, 3 animals
# [10] = D5-IP 50 mg/kg i.p., males, 3 animals
smiles,measurement,setting,value
CCCCCCCCCCCCCCCCOP(=O)(CCN1C[C@@H](O)[C@H](O)C1)OC[C@H]1O[C@@H](n2ccc(=O)[nH]c2=O)[C@H](O)[C@@H]1O (stereo partly drawn) [DR5026],gross pathology findings,"[1]; D1-PO, 5 mg/kg p.o.",NO FINDINGS
same,gross pathology findings,"[1]; D2-PO, 500 mg/kg p.o.",NO FINDINGS
same,gross pathology findings,"[1]; D3-PO, 1000 mg/kg p.o.",NO FINDINGS
same,gross pathology findings,"[1]; D4-PO, 1500 mg/kg p.o.",NO FINDINGS
same,gross pathology findings,"[1]; D5-PO, 2000 mg/kg p.o.",NO FINDINGS
same,signs of toxicity,"[1]; per os 5, 500, 1000, 1500 and 2000 mg/kg, single dose",did not cause any signs of toxicity
same,gross pathology changes,[1]; per os 5-2000 mg/kg,no gross pathology changes were detected
same,highest peroral dose without any signs of toxicity (maximal tolerated dose),"[1]; peroral, single dose",2000 mg/kg
same,gross pathology findings,"[2]; D1-IP, 5 mg/kg i.p., males and females",NO FINDINGS
same,"abdominal cavity red liquid, number of animals with finding",[2]; [3],2
same,"kidneys venostasis, number of animals with finding",[2]; [3],2
same,"liver venostasis, number of animals with finding",[2]; [3],2
same,"lungs focal hemorrhage, number of animals with finding",[2]; [3],1
same,"abdominal cavity red liquid, number of animals with finding",[2]; [4],2
same,"kidneys venostasis, number of animals with finding",[2]; [4],2
same,"liver venostasis, number of animals with finding",[2]; [4],2
same,"abdominal cavity red liquid, number of animals with finding",[2]; [5],3
same,"kidneys venostasis, number of animals with finding",[2]; [5],3
same,"liver venostasis, number of animals with finding",[2]; [5],3
same,"thoracic cavity red liquid, number of animals with finding",[2]; [5],1
same,"abdominal cavity red liquid, number of animals with finding",[2]; [6],3
same,"kidneys venostasis, number of animals with finding",[2]; [6],3
same,"liver venostasis, number of animals with finding",[2]; [6],3
same,"lungs venostasis, number of animals with finding",[2]; [6],1
same,"thoracic cavity red liquid, number of animals with finding",[2]; [6],1
same,"liver enlarged, number of animals with finding",[2]; [7],3
same,"liver rounded edges, number of animals with finding",[2]; [7],3
same,"abdominal cavity red liquid, number of animals with finding",[2]; [8],1
same,"kidneys venostasis, number of animals with finding",[2]; [8],1
same,"liver enlarged, number of animals with finding",[2]; [8],2
same,"liver rounded edges, number of animals with finding",[2]; [8],2
same,"liver venostasis, number of animals with finding",[2]; [8],1
same,"liver enlarged, number of animals with finding",[2]; [9],3
same,"liver rounded edges, number of animals with finding",[2]; [9],3
same,"spleen peritoneal adhesions, number of animals with finding",[2]; [9],1
same,"liver enlarged, number of animals with finding",[2]; [10],3
same,"liver peritoneal adhesions, number of animals with finding",[2]; [10],2
same,"liver rounded edges, number of animals with finding",[2]; [10],3
same,"spleen peritoneal adhesions, number of animals with finding",[2]; [10],2
same,safe limit (maximal tolerated dose),[2]; administered peritoneally,50 mg/kg
same,clinical signs,[2]; i.p. 80 mg/kg,all the monitored animals were slightly stolid 5 min after the administration
same,severe clinical signs / moribund animals,"[2]; i.p. 80 mg/kg, 24-26 hours",In one male a disturbance of locomotion was observed
same,clinical signs,[2]; i.p. 250 mg/kg and 500 mg/kg,exacerbated the symptoms
same,mortality,"[2]; i.p. 500 mg/kg, several hours after administration, 3 males + 3 females",death of 2 males and 2 females
same,signs of toxicity,[2]; i.p. 5 and 50 mg/kg,did not cause any signs of toxicity
